Measured values: the RepoRT retention time repository (doi:10.1016/j.foodchem.2015.11.070)

Assay: Thermo Scientific Hypersil GOLD aQ, 100 × 2.1 mm, 1.9 µm, 30 °C, 0.3 mL/min, estimated dead time 0.73 min; A: water + 0.01% formic acid + 4 mM ammonium formate; B: methanol + 0.01% formic acid + 4 mM ammonium formate; gradient (min/%B) 0/5 1/5 8/100 12/100
Settings: stereoisomer not certain

CSC(C)=NOC(=O)N(C)SN(C)C(=O)ON=C(C)SC
LC retention time: 8.88 min

COC(=O)Nc1cccc(OC(=O)Nc2cccc(C)c2)c1
LC retention time: 9.23 min

CC(=O)OCC12CC(OC(=O)CC(C)C)C(C)=CC1OC1C(O)C(O)C2(C)C12CO2 (configuration not stated)
LC retention time: 8.35 min

CNC(=O)Oc1cccc2c1OC(C)(C)O2
LC retention time: 8.4 min

CCOP(=O)(NC(C)C)Oc1ccc(SC)c(C)c1 (configuration not stated)
LC retention time: 9.99 min

CCCN(CCC)C(=O)SCc1ccccc1
LC retention time: 10.6 min

CCOP(=S)(OCC)Oc1cc(C)nc(C(C)C)n1
LC retention time: 10.2 min

CC(C)OC(=O)Nc1ccccc1
LC retention time: 8.61 min

CC1(C)C(C(=O)OC(C#N)c2cccc(Oc3ccccc3)c2)C1(C)C (configuration not stated)
LC retention time: 11 min

CCNC(=O)NC(=O)C(C#N)=NOC
LC retention time: 8.63 min

CCS(=O)(=O)c1cccnc1S(=O)(=O)NC(=O)Nc1nc(OC)cc(OC)n1
LC retention time: 8.71 min

CCOP(=S)(OCC)SCCSCC
LC retention time: 10.4 min

CC(Cc1ccc(C(C)(C)C)cc1)CN1CCCCC1 (configuration not stated)
LC retention time: 9.29 min

Cc1cc(C2CC2)nc(Nc2ccccc2)n1
LC retention time: 10.3 min

CCOP(=S)(OCC)SCSCC
LC retention time: 8.44 min

COC(=O)c1ccccc1CS(=O)(=O)NC(=O)Nc1nc(OC)cc(OC)n1
LC retention time: 9.3 min

CCc1ccc(C(=O)NN(C(=O)c2cc(C)cc(C)c2)C(C)(C)C)cc1
LC retention time: 9.99 min

CNC(=O)ON=CC(C)(C)SC
LC retention time: 7.89 min

C=CC=CCC1=C(C)C(OC(=O)C2C(C=C(C)C)C2(C)C)CC1=O (configuration not stated)
LC retention time: 11 min

CC1CCCC(=O)CCCC=Cc2cc(O)cc(O)c2C(=O)O1 (configuration not stated)
LC retention time: 9.87 min

CCS(=O)(=O)CCSP(=O)(OC)OC
LC retention time: 6.13 min

CNC(=O)ON=C(CSC)C(C)(C)C
LC retention time: 8.21 min

CCSCc1ccccc1OC(=O)NC
LC retention time: 8.76 min

COC(=O)C(C)N(C(=O)Cc1ccccc1)c1c(C)cccc1C (configuration not stated)
LC retention time: 10.2 min

CNC(=O)C(C)SCCSP(=O)(OC)OC (configuration not stated)
LC retention time: 7.11 min

CC1=CC2OC3C(O)CC(C)(C34CO4)C2(CO)C(O)C1=O (configuration not stated)
LC retention time: 9.63 min

CC(C)c1ccc(NC(=O)N(C)C)cc1
LC retention time: 9.15 min

CCCCOCCOCCOCc1cc2c(cc1CCC)OCO2
LC retention time: 10.8 min

CNC(=O)ON=C(C)C(C)S(C)(=O)=O (configuration not stated)
LC retention time: 7.37 min

CCOc1ccc(NC(=O)OC(C)C)cc1OCC
LC retention time: 9.37 min

CC(=O)OCC12CC(OC(=O)CC(C)C)C(C)=CC1OC1C(O)C(OC(C)=O)C2(C)C12CO2 (configuration not stated)
LC retention time: 9.3 min

COC(=O)C(C)N(C(=O)c1ccco1)c1c(C)cccc1C (configuration not stated)
LC retention time: 9.38 min

COP(=S)(OC)Oc1ccc(SC)c(C)c1
LC retention time: 10.2 min

CNC(=O)Oc1cccc2c1OC(C)(C)C2O (configuration not stated)
LC retention time: 7.11 min

CCCSP(=O)(OCC)SCCC
LC retention time: 9.93 min

CC(C)N1C(=O)c2ccccc2NS1(=O)=O
LC retention time: 8.26 min

CCC(CC)Nc1c([N+](=O)[O-])cc(C)c(C)c1[N+](=O)[O-]
LC retention time: 11.1 min

CC(C)N1C(=O)N(c2ccccc2)CSC1=NC(C)(C)C
LC retention time: 10.7 min

CNC(=O)CSP(=O)(OC)OC
LC retention time: 1.79 min

C=CCC1=C(C)C(OC(=O)C2C(C=C(C)C)C2(C)C)CC1=O (configuration not stated)
LC retention time: 10.8 min

Cc1nnc(-c2ccccc2)c(=O)n1N
LC retention time: 7.23 min

CCOC(=O)Nc1cccc(OC(=O)Nc2ccccc2)c1
LC retention time: 9.23 min

CCOC(=O)NCCOc1ccc(Oc2ccccc2)cc1
LC retention time: 9.38 min

CCCSP(=S)(OCC)Oc1ccc(SC)cc1 (configuration not stated)
LC retention time: 11 min

CNC(=O)ON=C(C)SC
LC retention time: 6.05 min

Cc1ccc(N=CN(C)C=Nc2ccc(C)cc2C)c(C)c1
LC retention time: 9.09 min

CNC(=O)ON=CC(C)(C)S(C)(=O)=O
LC retention time: 7.37 min

CCOP(=O)(NC(C)C)Oc1ccc(S(C)(=O)=O)c(C)c1 (configuration not stated)
LC retention time: 8.51 min

COP(=O)(OC)OC(C)=CC(=O)N(C)C
LC retention time: 6.63 min

CCOP(=S)(OCC)Oc1ccc(=O)n(-c2ccccc2)n1
LC retention time: 9.71 min

CNC(=O)CSP(=S)(OC)OC
LC retention time: 7.18 min

CCOP(=O)(NC(C)C)Oc1ccc(S(C)=O)c(C)c1 (configuration not stated)
LC retention time: 8.44 min
